# Reference: US11312713B2, “Imidazo[4,5-C]quinoline derivatives as LRRK2 inhibitors” (Pfizer Inc., priority 2017, dated 2022)
# Where two headings read alike, the source gives them in different places.
# Columns and labels:
# mutant G2019S LRRK2 = mutant G2019S LRRK2 (Homo sapiens (Human), UniProt Q5S007, G2019S); experiment: LRRK2 kinase assay (LanthaScreen), G2019S mutant; assay type: biochemical; conditions: LanthaScreen, LRRKtide substrate
# Procedure: LRRK2 kinase activity was measured using Lantha Screen technology from Invitrogen. GST-tagged truncated LRRK2 from Invitrogen (Cat #PV4874) was incubated with a fluorescein-labeled peptide substrate based upon ezrin/radixin/moesin (ERM), also known as LRRKtide (Invitrogen cat #PR8976A), in the presence of a dose response of compound. Upon completion, the assay was stopped and detected with a terbium labeled anti-phospho-ERM antibody (Invitrogen, cat #PR8975A). […] Using Echo acoustic dispensing, 60 nL of compound was transferred to a low volume Corning 384-well assay plate. 3 μL of a working solution of substrate (200 nM LRRKtide, 2 mM ATP) prepared in assay buffer (50 mM HEPES, pH 7.5, 3 mM MgCl2, with 2 mM DTT and 0.01% Brij35 added fresh) was added to the 60 nL compound assay plate. The kinase reaction was started with 3 μL of a working solution of LRRK2 enzyme at a concentration of 4 μg/m L. The final reaction concentrations were 100 nM LRRKtide, 1 mM ATP, 2 μg/mL LRRK2 enzyme and a compound dose response with a top dose of 3 μM. The reaction was allowed to progress at room temperature for 30 minutes and then stopped with the addition of 6 μL of detection buffer (20 mM Tris pH 7.6, 0.01% NP-40, 6 mM EDTA with 2 nM terbium labeled antiphospho-ERM). […] All final concentrations of substrate ATP and enzyme were the same.
# [1] = target: LRRK2, WT (GST-tagged truncated LRRK2) (Homo sapiens, UniProt Q5S007); experiment: LRRK2 kinase assay (LanthaScreen), wild type; assay type: biochemical; conditions: LanthaScreen, LRRKtide substrate
# Summary of the method: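 GST-tagged truncated enzyme (2 μg/mL) phosphorylates 100 nM fluorescein-LRRKtide with 1 mM ATP in HEPES pH 7.5, 3 mM MgCl2, DTT, Brij35; 30 min, room temperature, compound dose response top 3 μM. Stopped with EDTA; phospho-ERM detected by terbium anti-phospho-ERM TR-FRET; identical conditions for both enzymes.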
# [2] = G2019S mutant LRRK2, read-out: LRRK2, G2019S IC50
# Chain of mutant G2019S LRRK2 (Q5S007 whole entry G2019S, the tested form may be a part): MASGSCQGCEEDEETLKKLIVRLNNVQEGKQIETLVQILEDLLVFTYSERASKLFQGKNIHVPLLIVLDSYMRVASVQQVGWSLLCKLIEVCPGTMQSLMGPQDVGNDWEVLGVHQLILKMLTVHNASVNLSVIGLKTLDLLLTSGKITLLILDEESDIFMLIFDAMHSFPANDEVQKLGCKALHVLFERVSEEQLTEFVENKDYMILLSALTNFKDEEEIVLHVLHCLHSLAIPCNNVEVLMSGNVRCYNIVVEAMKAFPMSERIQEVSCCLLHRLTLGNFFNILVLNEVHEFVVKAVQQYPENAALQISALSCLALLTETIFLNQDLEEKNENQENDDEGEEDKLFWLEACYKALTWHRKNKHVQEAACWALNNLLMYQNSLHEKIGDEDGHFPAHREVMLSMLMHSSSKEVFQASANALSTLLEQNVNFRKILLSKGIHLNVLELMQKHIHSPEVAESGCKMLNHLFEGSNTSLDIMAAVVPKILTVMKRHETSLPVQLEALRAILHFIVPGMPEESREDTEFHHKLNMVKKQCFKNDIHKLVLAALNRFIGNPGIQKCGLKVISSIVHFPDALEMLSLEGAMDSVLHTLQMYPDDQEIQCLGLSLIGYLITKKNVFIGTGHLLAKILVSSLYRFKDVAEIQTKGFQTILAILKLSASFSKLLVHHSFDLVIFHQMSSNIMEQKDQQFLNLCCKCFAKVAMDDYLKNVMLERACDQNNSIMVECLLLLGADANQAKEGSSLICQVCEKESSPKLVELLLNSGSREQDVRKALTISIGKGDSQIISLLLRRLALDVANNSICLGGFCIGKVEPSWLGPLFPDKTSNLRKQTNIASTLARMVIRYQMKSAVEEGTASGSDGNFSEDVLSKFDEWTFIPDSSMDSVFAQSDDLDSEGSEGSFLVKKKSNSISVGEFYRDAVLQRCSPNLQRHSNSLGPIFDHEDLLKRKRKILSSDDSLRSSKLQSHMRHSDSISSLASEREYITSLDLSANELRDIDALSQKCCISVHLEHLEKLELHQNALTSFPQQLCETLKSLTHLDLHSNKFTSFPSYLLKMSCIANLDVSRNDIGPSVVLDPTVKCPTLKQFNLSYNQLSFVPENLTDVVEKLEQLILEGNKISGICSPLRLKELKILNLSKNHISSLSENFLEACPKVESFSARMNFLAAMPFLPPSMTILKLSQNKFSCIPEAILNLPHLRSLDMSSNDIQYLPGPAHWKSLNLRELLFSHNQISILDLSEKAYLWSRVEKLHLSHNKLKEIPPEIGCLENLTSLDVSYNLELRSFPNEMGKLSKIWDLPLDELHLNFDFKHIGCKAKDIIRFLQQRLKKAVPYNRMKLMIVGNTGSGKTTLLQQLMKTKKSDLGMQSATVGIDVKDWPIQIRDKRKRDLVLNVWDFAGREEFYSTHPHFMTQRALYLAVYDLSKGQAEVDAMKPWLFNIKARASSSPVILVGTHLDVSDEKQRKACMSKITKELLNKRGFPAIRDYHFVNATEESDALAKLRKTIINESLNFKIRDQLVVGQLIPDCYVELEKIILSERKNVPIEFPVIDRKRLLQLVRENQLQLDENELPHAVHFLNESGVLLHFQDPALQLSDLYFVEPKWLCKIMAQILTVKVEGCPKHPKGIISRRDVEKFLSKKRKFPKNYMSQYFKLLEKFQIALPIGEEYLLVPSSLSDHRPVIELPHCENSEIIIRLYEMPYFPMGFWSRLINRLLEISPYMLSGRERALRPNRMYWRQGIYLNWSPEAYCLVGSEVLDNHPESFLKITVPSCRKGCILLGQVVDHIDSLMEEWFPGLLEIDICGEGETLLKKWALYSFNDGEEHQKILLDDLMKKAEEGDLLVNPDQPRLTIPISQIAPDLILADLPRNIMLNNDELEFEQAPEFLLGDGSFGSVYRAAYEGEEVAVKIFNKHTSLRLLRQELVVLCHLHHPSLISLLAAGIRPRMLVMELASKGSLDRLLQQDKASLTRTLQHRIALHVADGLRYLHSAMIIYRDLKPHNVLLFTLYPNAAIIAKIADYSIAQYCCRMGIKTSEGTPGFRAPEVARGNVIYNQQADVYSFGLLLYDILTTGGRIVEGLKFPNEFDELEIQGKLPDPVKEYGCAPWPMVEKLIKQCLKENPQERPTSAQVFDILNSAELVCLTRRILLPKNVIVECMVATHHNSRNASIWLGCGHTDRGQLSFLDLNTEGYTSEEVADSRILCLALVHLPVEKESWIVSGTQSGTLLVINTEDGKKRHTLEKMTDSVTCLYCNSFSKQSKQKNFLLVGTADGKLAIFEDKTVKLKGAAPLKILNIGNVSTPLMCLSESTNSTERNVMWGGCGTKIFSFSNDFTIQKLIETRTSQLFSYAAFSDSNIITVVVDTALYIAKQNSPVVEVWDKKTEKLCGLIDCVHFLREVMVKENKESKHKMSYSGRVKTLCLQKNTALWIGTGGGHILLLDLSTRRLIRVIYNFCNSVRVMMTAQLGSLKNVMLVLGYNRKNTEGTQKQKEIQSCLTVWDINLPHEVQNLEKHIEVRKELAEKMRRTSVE
Compound,IC50 (mutant G2019S LRRK2; [2]) [nM],IC50 ([1]; wild type LRRK2) [nM],IC50 ([1]; 1 mM ATP) [nM],"IC50 (mutant G2019S LRRK2; 1 mM ATP, read-out: LRRK2, G2019S mutant IC50) [nM]"
"CN1CC(n2c(Cn3cnnn3)nc3cnc4ccc(Cl)cc4c32)C(F)(F)C1 (stereo not drawn) [Example 83, 8-chloro-1-(4,4-difluoro-1-methylpyrrolidin-3-yl)-2-(1H-tetrazol-1-ylmethyl)-1H-imidazo[4,5-c]quinoline]",11.6,7.91,,
"CN1CC(n2c(Cc3ncn(C)n3)nc3cnc4ccc(Cl)cc4c32)C(F)(F)C1 (stereo not drawn) [Example 84, 8-chloro-1-(4,4-difluoro-1-methylpyrrolidin-3-yl)-2-[(1-methyl-1H-1,2,4-triazol-3-yl)methyl]-1H-imidazo[4,5-c]quinoline]",18.2,10.2,,
"Cc1nc(Cc2nc3cnc4ccc(Cl)cc4c3n2C2CN(C)CC2(F)F)no1 (stereo not drawn) [Example 88, 8-chloro-1-(4,4-difluoro-1-methylpyrrolidin-3-yl)-2-[(5-methyl-1,2,4-oxadiazol-3-yl)methyl]-1H-imidazo[4,5-c]quinoline]",8.16,9.25,,
"Cc1cc(Cc2nc3cnc4ccc(C(F)F)cc4c3n2[C@@H]2CCO[C@H](C)C2)no1 [Example 91, 8-(difluoromethyl)-2-[(5-methyl-1,2-oxazol-3-yl)methyl]-1-[(2R,4R)-2-methyltetrahydro-2H-pyran-4-yl]-1H-imidazo[4,5-c]quinoline]",8.4,18,,
"FC1(F)COCCC1n1c(Cn2cncn2)nc2cnc3ccc(Cl)cc3c21 (stereo not drawn) [Example 93, 8-chloro-1-(3,3-difluorotetrahydro-2H-pyran-4-yl)-2-(1H-1,2,4-triazol-1-ylmethyl)-1H-imidazo[4,5-c]quinoline]",8.7,11.9,11,
"Cc1cn(Cc2nc3cnc4ccc(Cl)cc4c3n2C2CCOCC2(F)F)nn1 (stereo not drawn) [enantiomer of Example 46, 8-chloro-1-(3,3-difluorotetrahydro-2H-pyran-4-yl)-2-[(4-methyl-1H-1,2,3-triazol-1-yl)methyl]-1H-imidazo[4,5-c]quinoline]",,,21.4,16.1

# Second part, the compound after the results:
IC50 (mutant G2019S LRRK2; [2]) [nM],IC50 ([1]; wild type LRRK2) [nM],IC50 ([1]; 1 mM ATP) [nM],"IC50 (mutant G2019S LRRK2; 1 mM ATP, read-out: LRRK2, G2019S mutant IC50) [nM]",Compound
4.4,6.66,,,"CN1CC(n2c(Cn3cnnn3)nc3cnc4ccc(Cl)cc4c32)C(F)(F)C1 (stereo not drawn) [Example 86, 8-chloro-1-(4,4-difluoro-1-methylpyrrolidin-3-yl)-2-(1H-tetrazol-1-ylmethyl)-1H-imidazo[4,5-c]quinoline]"
4.51,7.04,,,"Cc1cnn(Cc2nc3cnc4ccc(Cl)cc4c3n2C2CN(C)CC2(F)F)n1 (stereo not drawn) [Example 87, 8-chloro-1-(4,4-difluoro-1-methylpyrrolidin-3-yl)-2-[(4-methyl-2H-1,2,3-triazol-2-yl)methyl]-1H-imidazo[4,5-c]quinoline]"
8.03,13.9,,,"Cc1nnc(Cc2nc3cnc4ccc(Cl)cc4c3n2C2CN(C)CC2(F)F)s1 (stereo not drawn) [Example 89, 8-chloro-1-(4,4-difluoro-1-methylpyrrolidin-3-yl)-2-[(5-methyl-1,3,4-thiadiazol-2-yl)methyl]-1H-imidazo[4,5-c]quinoline]"
7.32,14.7,,,"Cc1cn(Cc2nc3cnc4ccc(C(F)F)cc4c3n2[C@@H]2CCO[C@H](C)C2)nn1 [Example 90, 8-(difluoromethyl)-1-[(2R,4R)-2-methyltetrahydro-2H-pyran-4-yl]-2-[(4-methyl-1H-1,2,3-triazol-1-yl)methyl]-1H-imidazo[4,5-c]quinoline]"
6.91,10.9,,,"Cc1nnc(Cc2nc3cnc4ccc(Cl)cc4c3n2C2CCOCC2(F)F)s1 (stereo not drawn) [Example 92, 8-chloro-1-(3,3-difluorotetrahydro-2H-pyran-4-yl)-2-[(5-methyl-1,3,4-thiadiazol-2-yl)methyl]-1H-imidazo[4,5-c]quinoline]"
6.48,6.35,,,"FC1(F)COCCC1n1c(Cn2cc(C3CC3)nn2)nc2cnc3ccc(Cl)cc3c21 (stereo not drawn) [Example 94, 8-chloro-2-[(4-cyclopropyl-1H-1,2,3-triazol-1-yl)methyl]-1-(3,3-difluorotetrahydro-2H-pyran-4-yl)-1H-imidazo[4,5-c]quinolone]"
3.5,4.6,,,"C[C@@H]1C[C@H](n2c(Cc3cnc(CO)cn3)nc3cnc4ccc(Cl)cc4c32)CCO1 [Example 95, [5-({8-chloro-1-[(2R,4R)-2-methyltetrahydro-2H-pyran-4-yl]-1H-imidazo[4,5-c]quinolin-2-yl}methyl)pyrazin-2-yl]methanol]"
